Measurements taken from patent US20110262425A1, “THERAPEUTIC AGENT FOR MLL LEUKEMIA AND MOZ LEUKEMIA OF WHICH MOLECULAR TARGET IS M-CSF RECEPTOR, AND USE THEREOF” (NATIONAL CANCER CENTER, priority 2007, published 2011).
“Also recorded” adds a separate entry of the source. Structures can show the parent of a compound that is named as a salt.

Experiments:
Format in all cases: in vivo
MOZ-TIF2-induced AML = assay: Effect of Imatinib on MOZ-TIF2-induced AML in mice; details: Imatinib 100 mg/kg orally twice a day
Text: (§1) FIG. 10 (A-D) BM cells (10^5 cells) from AML mice with MOZ-TIF2 (A), MLL-AF10 (B), or N-MYC (C) were transplanted into irradiated mice. […] (A-C) show the results of analyzing leukemia-free survival of the mice. (D) depicts the photograph showing the result of analyzing spleen sizes of the MOZ-TIF2-introduced mice three weeks after transplantation.

MLL-AF10-induced AML = assay: Effect of Imatinib on MLL-AF10-induced AML in mice; details: Imatinib 100 mg/kg orally twice a day
Text: as §1

N-MYC-induced AML = assay: Effect of Imatinib on N-MYC-induced AML in mice; details: Imatinib 100 mg/kg orally twice a day
Text: as §1

M-CSFR-expressing cells = assay: Ablation of M-CSFR-expressing cells by AP20187 in MOZ-TIF2-induced AML mice (FKBP-Fas suicide gene transgenic BM cells, secondary transplantation); details: then 1 mg/kg every three days
Description: FIG. 1 depicts the result of M-CSFR expression in bone marrow cells of MOZ leukemogenesis mice. (A) BM cells from MOZ-TIF2-induced AML mice were analyzed by FACS for expression of GFP and M-CSFR. (B) M-CSFR^high cells and M-CSFR^low/- cells were sorted by flow cytometer. MOZ-TIF2 expression in these cells was investigated by immunoblot analysis using an anti-MOZ antibody. (C, D) Indicated numbers of M-CSFR^high cells (C) and M-CSFR^low/- cells (D) were transplanted into mice irradiated beforehand with a lethal dose of radiation and survival from leukemia onset was investigated. (E) Structure of genes for the M-CSFR promoter, EGFP, the NGFR-FKBP-Fas suicide construct, and activation mechanism of NGFR-FKBP-Fas. In transgenic (Tg) mice, conditional ablation of cells highly expressing M-CSFR can be induced by exposure to an AP20187 dimerizer. (F-I) AML mice were induced by transplantation of BM cells from Tg mice infected with MOZ-TIF2, and 10^5 BM cells from AML Tg mice were secondary transplanted into wild-type mice lethally-irradiated beforehand. The secondary-transplanted mice were exposed to AP20187 seven days after transplantation. Expression of GFP and M-CSFR in BM cells (F, G) and the size of spleens (H) of normal Tg mice (F), and of untreated and AP20187-treated secondary-transplanted mice (G) were analyzed four weeks after transplantation. Leukemia-free survival rate of the untreated and AP20187-treated secondary-transplanted mice were investigated (I).
In the transgenic mice, expression levels of endogenous M-CSFR were proportional to those of EGFP and FKBP-Fas (FIG. 1F), and conditional ablation of M-CSFR-expressing cells can be induced by injection of the AP20187 dimerizer (Burnett, S. H. et al., J Leukoc Biol (2004) 75: 612-23). c-KIT^+ BM cells of the transgenic mice were infected with the MOZ-TIF2 retrovirus, and transplanted into lethally-irradiated wild-type mice. These mice developed AML about two months after transplantation, and their BM cells (10^5 cells/mouse) were transplanted into secondary recipient mice. […]

SMILES	MOZ-TIF2-induced splenomegaly (MOZ-TIF2-induced AML; three weeks after transplantation)	onset of AML (leukemia-free survival) (MOZ-TIF2-induced AML; MOZ-TIF2)	onset of AML (leukemia-free survival) (MLL-AF10-induced AML)	progress of AML (leukemia-free survival) (N-MYC-induced AML)	development of AML (leukemia-free survival) (M-CSFR-expressing cells; AP20187 10 mg/kg i.v. daily for 5 days, 5-6 weeks after transplantation)	M-CSFR^high cells in BM (M-CSFR-expressing cells; AP20187 10 mg/kg intravenously daily for 5 days, from seven days after transplantation, three weeks after transplantation)	splenomegaly (M-CSFR-expressing cells; AP20187 10 mg/kg intravenously daily for 5 days, three weeks after transplantation)
Cc1ccc(NC(=O)c2ccc(CN3CCN(C)CC3)cc2)cc1Nc1nccc(-c2cccnc2)n1 [Imatinib, Imatinib mesylate]	inhibited	slowed onsets of AML; also recorded: delaying the leukemia onset	slowed onsets of AML; also recorded: delaying the leukemia onset	did not affect the progress	–	–	–
CC[C@H](C(=O)N1CCCC[C@H]1C(=O)O[C@H](CCc1ccc(OC)c(OC)c1)c1cccc(OCC(=O)NCC(CNC(=O)COc2cccc([C@@H](CCc3ccc(OC)c(OC)c3)OC(=O)[C@@H]3CCCCN3C(=O)[C@@H](CC)c3cc(OC)c(OC)c(OC)c3)c2)CN(C)C)c1)c1cc(OC)c(OC)c(OC)c1 [AP20187]	–	–	–	–	suppressed; also recorded: none of the AP20187-treated mice, developed AML	neither M-CSFR^high cells nor splenomegaly were detected	suppressed; also recorded: neither M-CSFR^high cells nor splenomegaly were detected
